This note sets out measurements from patent US10221171B2, “Oxathiazole thiazolium Hsp 70 inhibitors” (THE REGENTS OF THE UNIVERSITY OF CALIFORNIA, priority 2015, dated 2019).

Molecules are shown by their SMILES. Read-outs that look alike come from different tables or passages of the source.

Common to all, as to format: cell-based
Assay [1] relates to MCF-7. As to the kind of experiment: MTT cell viability assay, MCF-7. The note with it: Homo sapiens, read-out: IC50/μM MCF-7. As to the method:
(§1) Cells were then treated with compound at various concentrations in 0.2 mL media. After the 72-hour incubation period, cells were washed in PBS (3×100 μL), and 10 μL MTT reagent was added with 100 μL fresh media. Cells were then incubated for 4 hr in a humidified chamber at 37° C. with 5% CO2. Insoluble formazan crystals were solubilized by addition of 0.1 mL detergent solution (4 hr at room temp., dark). Resulting colored solutions were then quantified at an absorbance of 570 nm.
Background: Tetrazolium dyes change colour on reduction, which living cells bring about.

In assay [2] the test system is MDA-MB-231. Briefly: MTT cell viability assay, MDA-MB-231. The note with it: Homo sapiens. The method, then: as §1
The test system of assay [3] is MEF (C57BL/6). As to the kind of experiment: MTT cell viability assay, MEF (C57BL/6). The note with it: Mus musculus. The method, then:
as §1

The mark [4] stands for this setting: MTT, 72-hour incubation, read-out: IC50/μM MEF (C57BL/6).
Setting [5] is: MCF7, 72 h, MTT, 72-hour incubation.
Where [6] appears, read: MDA-MB-231, 72 h, 72-hour incubation.
The mark [7] stands for this setting: 72 h, read-out: IC50/μM MEF (C57BL/6), MTT, 72-hour incubation.

For `CCn1c(=O)/c(=C2\Sc3cc(OC)ccc3N2C)s/c1=C\c1scc[n+]1Cc1ccccc1C(=O)OC` [JG-351], the IC50 in assay [1] (MCF7, MTT, 72-hour incubation) is 0.14 ± 0.01 µM; in assay [2] (MDA-MB-231, 72-hour incubation) it was 0.11 ± 0.01 µM; in assay [3] (setting [4]) it was 1.6 ± 0.1 µM.
As to `CCn1c(=O)/c(=C2\Sc3cc(SC)ccc3N2C)s/c1=C\c1scc[n+]1Cc1ccccc1` [JG-249], the IC50 is 0.13 ± 0.01 µM in assay [1] (setting [5]), 0.12 ± 0.01 µM in assay [2] (setting [6]) and 1.7 ± 0.1 µM in assay [3] (setting [7]).
Take `CCn1c(=O)/c(=C2\Sc3cc(Br)ccc3N2C)s/c1=C\c1scc[n+]1C(C)c1ccccc1` (stereo not drawn) [JG-317]: the IC50 worked out at 0.35 ± 0.08 µM in assay [1] (MCF7, MTT, 72-hour incubation); 0.14 ± 0.02 µM in assay [2] (MDA-MB-231, 72-hour incubation); 2.7 ± 0.1 µM in assay [3] (setting [4]).
On to `CCn1c(=O)/c(=C2\Sc3cc(C)ccc3N2C)s/c1=C\c1scc[n+]1Cc1c(Cl)cccc1Cl` [JG-371], for which the IC50 amounted to 0.069 ± 0.004 µM in assay [1] (MCF7, MTT, 72-hour incubation); 0.07 ± 0.01 µM in assay [2] (MDA-MB-231, 72-hour incubation); 0.68 ± 0.02 µM in assay [3] (setting [4]).
Regarding `CCn1c(=O)/c(=C2\Sc3cc(Cl)ccc3N2C)s/c1=C\c1scc[n+]1Cc1c(Cl)cccc1Cl` [JG-337], the figures for the IC50 in assay [1] (setting [5]), in assay [2] (setting [6]) and in assay [3] (setting [7]) were 0.16 ± 0.01 µM, 0.16 ± 0.01 µM and 1.4 ± 0.1 µM, respectively.
`CCn1c(=O)/c(=C2\Sc3cc(OC)ccc3N2C)s/c1=C\c1scc[n+]1Cc1ccccc1C(F)(F)F` [JG-304]: the IC50 in assay [1] (MCF7, MTT, 72-hour incubation) turned out to be 0.12 ± 0.01 µM; in assay [2] (MDA-MB-231, 72-hour incubation), 0.1 ± 0.02 µM; in assay [3] (setting [4]), 1.4 ± 0.06 µM.
For the molecule `CCn1c(=O)/c(=C2\Sc3cc(C)ccc3N2C)s/c1=C\c1scc[n+]1Cc1ccccc1C` [JG-284], the IC50 in assay [1] (MCF7, MTT, 72-hour incubation) was 0.09 ± 0.006 µM; in assay [2] (MDA-MB-231, 72-hour incubation), 0.09 ± 0.005 µM; in assay [3] (setting [4]), 0.64 ± 0.03 µM.
Consider `CCn1c(=O)/c(=C2\Sc3cc(OC)ccc3N2C)s/c1=C\c1scc[n+]1Cc1ccccc1OC(F)(F)F` [JG-303], for which the IC50 was 0.07 ± 0.003 µM in assay [1] (MCF7, 72 h); 0.053 ± 0.005 µM in assay [2] (setting [6]); 0.7 ± 0.01 µM in assay [3] (setting [4]).
Turning to `CCn1c(=O)/c(=C2\SCCN2C)s/c1=C\c1scc[n+]1Cc1ccccc1` [JG-258], the IC50 was above 5 µM in assay [1] (MCF7, MTT, 72-hour incubation); above 20 µM in assay [2] (MDA-MB-231, 72-hour incubation); above 10 µM in assay [3] (setting [4]).
For `CCn1c(=O)/c(=C2\Sc3cc(C)ccc3N2C)s/c1=C\c1scc[n+]1CCc1cccc(C(F)(F)F)c1` [JG-384], the IC50 in assay [1] (MCF7, MTT, 72-hour incubation) came out at 0.62 ± 0.08 µM; in assay [2] (MDA-MB-231, 72-hour incubation), 0.68 ± 0.1 µM; in assay [3] (setting [4]), 1.1 ± 0.1 µM.
Consider `CCn1c(=O)/c(=C2\Sc3ccc(C)cc3N2C)s/c1=C\c1scc[n+]1Cc1c(Cl)cccc1Cl` [JG-361], for which the IC50 amounted to 0.088 ± 0.008 µM in assay [1] (setting [5]), 0.054 ± 0.006 µM in assay [2] (setting [6]) and 0.55 ± 0.03 µM in assay [3] (setting [7]).
In the case of `CCn1c(=O)/c(=C2\Sc3cc(OC)ccc3N2C)s/c1=C\c1scc[n+]1CCc1ccccc1C(F)(F)F` [JG-377], the IC50 was 0.12 ± 0.01 µM in assay [1] (MCF7, MTT, 72-hour incubation); 0.19 ± 0.03 µM in assay [2] (MDA-MB-231, 72-hour incubation); above 10 µM in assay [3] (setting [4]).
With `CCn1c(=O)/c(=C2\Sc3cc([N+](=O)[O-])ccc3N2C)s/c1=C\c1scc[n+]1Cc1ccccc1` [JG-252], the IC50 is above 5 µM in assay [1] (MCF7, MTT, 72-hour incubation); 4.8 ± 0.4 µM in assay [2] (setting [6]); 2.8 ± 0.1 µM in assay [3] (setting [7]).
As to `CCn1c(=O)/c(=C2\Sc3cc(C)ccc3N2C)s/c1=C\c1scc[n+]1Cc1ccccc1OC` [JG-375], the IC50 was determined as 0.071 ± 0.006 µM in assay [1] (setting [5]), 0.082 ± 0.01 µM in assay [2] (setting [6]) and 0.96 ± 0.03 µM in assay [3] (setting [7]).
For `CCn1c(=O)/c(=C2\Sc3ccc(C)cc3N2C)s/c1=C\c1scc[n+]1Cc1ccsc1C(=O)OC` [JG-369], the IC50 in assay [1] (MCF7, MTT, 72-hour incubation) was 0.063 ± 0.004 µM; in assay [2] (MDA-MB-231, 72-hour incubation), 0.12 ± 0.01 µM; in assay [3] (setting [4]), 0.44 ± 0.02 µM.
As for `CCn1c(=O)/c(=C2\Sc3cc(Cl)ccc3N2C)s/c1=C\c1scc[n+]1Cc1nc(C)sc1C` [JG-274], the IC50 in assay [1] (MCF7, MTT, 72-hour incubation) was 0.098 ± 0.008 µM; in assay [2] (MDA-MB-231, 72-hour incubation), 0.08 ± 0.008 µM; in assay [3] (setting [4]), 4.2 ± 0.4 µM.
For `CCn1c(=O)/c(=C2\Sc3cc(Cl)ccc3N2C)s/c1=C\c1scc[n+]1CCc1ccc(Cl)cc1` [JG-385], the IC50 in assay [1] (MCF7, MTT, 72-hour incubation) was found to be 0.69 ± 0.05 µM; in assay [2] (MDA-MB-231, 72-hour incubation) it was 0.61 ± 0.05 µM; in assay [3] (setting [4]) it was 4.4 ± 0.3 µM.
With `CCn1c(=O)/c(=C2\Sc3cc(F)ccc3N2C)s/c1=C\c1scc[n+]1Cc1c(C)cccc1C` [JG-334], the IC50 in assay [1] (MCF7, MTT, 72-hour incubation) came out at 0.32 ± 0.03 µM; in assay [2] (MDA-MB-231, 72-hour incubation), 0.38 ± 0.04 µM; in assay [3] (setting [4]), 1.4 ± 0.1 µM.
With `CCn1c(=O)/c(=C2\Sc3cc(OC)ccc3N2C)s/c1=C\c1scc[n+]1Cc1ccc(C(F)(F)F)o1` [JG-306], the IC50 in assay [1] (MCF7, MTT, 72-hour incubation) was 0.16 ± 0.02 µM; in assay [2] (MDA-MB-231, 72-hour incubation) it was 0.1 ± 0.01 µM; in assay [3] (setting [4]), above 10 µM.
In the same order, the values of `CCn1c(=O)/c(=C2\Sc3cc(Br)ccc3N2C)s/c1=C\c1scc[n+]1Cc1ccsc1` [JG-278] are 0.39 ± 0.06 µM, 0.23 ± 0.04 µM and 3.4 ± 0.2 µM.
`CCn1c(=O)/c(=C2\Sc3ccc(OC)cc3N2C)s/c1=C\c1scc[n+]1Cc1c(Cl)cccc1Cl` [JG-403]: the IC50 in assay [1] (MCF7, MTT, 72-hour incubation) stood at 0.7 ± 0.08 µM; in assay [2] (MDA-MB-231, 72-hour incubation) it was 0.2 ± 0.01 µM; in assay [3] (setting [4]), 1.2 ± 0.1 µM.
Take `CCn1c(=O)/c(=C2\Sc3cc(C)ccc3N2C)s/c1=C\c1scc[n+]1Cc1ccccc1C(=O)OC` [JG-374]: the IC50 worked out at 0.16 ± 0.01 µM in assay [1] (MCF7, MTT, 72-hour incubation); 0.15 ± 0.01 µM in assay [2] (MDA-MB-231, 72-hour incubation); 0.69 ± 0.03 µM in assay [3] (setting [4]).
On the same counts, the results for `CCn1c(=O)/c(=C2\Sc3cc(Cl)ccc3N2C)s/c1=C\c1scc[n+]1Cc1ccccc1Br` [JG-307] are 0.12 ± 0.01 µM, 0.13 ± 0.02 µM and 1.1 ± 0.1 µM.
As for `CCn1c(=O)/c(=C2\Sc3cc(SC)ccc3N2C)s/c1=C\c1scc[n+]1Cc1cc(C)sc1C` [JG-359], the IC50 in assay [1] (MCF7, MTT, 72-hour incubation) is 0.21 ± 0.01 µM; in assay [2] (MDA-MB-231, 72-hour incubation) it was 0.25 ± 0.01 µM; in assay [3] (setting [4]), 1.6 ± 0.1 µM.
In the same order, the values of `CCn1c(=O)/c(=C2\Sc3cc(Br)ccc3N2C)s/c1=C\c1scc[n+]1Cc1ccccc1C(F)(F)F` [JG-292] are 0.12 ± 0.01 µM, 0.18 ± 0.02 µM and 2.7 ± 0.1 µM.
As to `CCn1c(=O)/c(=C2\Sc3cc(F)ccc3N2C)s/c1=C\c1scc[n+]1Cc1ccccc1SC(F)(F)F` [JG-254], the IC50 in assay [1] (MCF7, MTT, 72-hour incubation) is 0.65 ± 0.13 µM; in assay [2] (MDA-MB-231, 72-hour incubation), 0.1 ± 0.01 µM; in assay [3] (setting [4]) it was 1.5 ± 0.1 µM.
`CCc1ccc2c(c1)S/C(=c1/s/c(=C\c3scc[n+]3Cc3cc(C)sc3C)n(CC)c1=O)N2C` [JG-347]: the IC50 in assay [1] (MCF7, MTT, 72-hour incubation) is 0.095 ± 0.008 µM; in assay [2] (MDA-MB-231, 72-hour incubation), 0.21 ± 0.01 µM; in assay [3] (setting [4]), 0.6 ± 0.01 µM.
As for `CCn1c(=O)/c(=C2\Sc3cc(F)ccc3N2C)s/c1=C\c1scc[n+]1Cc1csc(NC(C)=O)n1` [JG-262], the IC50 is above 5 µM in assay [1] (MCF7, MTT, 72-hour incubation); above 20 µM in assay [2] (MDA-MB-231, 72-hour incubation); above 10 µM in assay [3] (setting [4]).
`CCn1c(=O)/c(=C2\Sc3cc(C(C)C)ccc3N2C)s/c1=C\c1scc[n+]1Cc1ccccc1C(F)(F)F` [JG-326]: the IC50 came out at 0.069 ± 0.005 µM in assay [1] (MCF7, MTT, 72-hour incubation); 0.06 ± 0.007 µM in assay [2] (MDA-MB-231, 72-hour incubation); 0.45 ± 0.04 µM in assay [3] (setting [4]).
Regarding `CCn1c(=O)/c(=C2\Sc3cc(Br)ccc3N2C)s/c1=C\c1scc[n+]1Cc1ccccc1Cl` [JG-289], the IC50 in assay [1] (MCF7, MTT, 72-hour incubation) amounted to 0.27 ± 0.02 µM; in assay [2] (MDA-MB-231, 72-hour incubation), 0.12 ± 0.02 µM; in assay [3] (setting [4]), 0.96 ± 0.05 µM.
For `CCn1c(=O)/c(=C2\Sc3cc(OC)ccc3N2C)s/c1=C\c1scc[n+]1Cc1ccccc1` [JG-250], the IC50 amounted to 0.13 ± 0.01 µM in assay [1] (setting [5]), 0.16 ± 0.01 µM in assay [2] (setting [6]) and 2 ± 0.1 µM in assay [3] (setting [4]).
In the case of `CCn1c(=O)/c(=C2\Sc3cc(Cl)ccc3N2C)s/c1=C\c1scc[n+]1Cc1ccc(Cl)cc1` [JG-255], the results for the IC50 in assay [1] (setting [5]), in assay [2] (setting [6]) and in assay [3] (setting [7]) were 1.45 ± 0.13 µM, 0.41 ± 0.06 µM and 3.1 ± 0.3 µM, respectively.
For `CCn1c(=O)/c(=C2\Sc3cc(Cl)ccc3N2C)s/c1=C\c1scc[n+]1Cc1ccccc1CO` [JG-329], the IC50 worked out at 0.58 ± 0.1 µM in assay [1] (MCF7, MTT, 72-hour incubation); 0.39 ± 0.06 µM in assay [2] (MDA-MB-231, 72-hour incubation); 7.3 ± 2.1 µM in assay [3] (setting [4]).
